Measurements taken from US7473527B2, “Compounds promoting delivery of genes” (The UAB Research Foundation, priority 2002, dated 2009).

What was measured:
Type in all cases: cell-based
HT29 cells [1] = experiment: Adenovirus luciferase gene transfer into confluent HT29 cells; conditions: for activation of adenovirus gene transfer (luciferase): 100 micromolar, procedure of Example 1 (MOI 50, assay 48 hours later), screen of 1032 NSC library compounds; for activation of adenovirus gene transfer (luciferase activity): MOI 1, 3 or 10, compound 30 nM, 300 nM, 10 uM, 30 uM or 100 uM, 48 hours
Procedure: HT29 cells are grown in 96-well plates. The cells are seeded at near confluency, about 300,000 cells per well, and infected with adenovirus 3-4 days later. […] For screening purposes, cells are grown on plastic. […] The activity of candidate compounds may be also confirmed using polarized monolayers grown on filters. Once confluent, HT29 cells are very difficult to transduce with adenoviral constructs. Fewer than 1 in 100 cells express adenoviral transgenes at multiplicity of infection (MOI) of approximately 50. A replication deficient adenovirus encoding firefly luciferase or the EGFP at an MOI of 50 for each well of cells in low serum medium is applied for 4 hours at 37° C. Confluent HeLa cells are used as a positive control. A set of cells is incubated with virus but no gene transfer activating compound as a negative control. Test drugs are incubated along with the virus. Forty-eight hours later, the cells are assayed for luciferase by standard techniques. Luciferase is assayed using a commercially available kit (Promega) which allows quantitative measurements of adenoviral gene transfer.
(§1) FIGS. 2A and 2B show a comparison of luciferase expression (y-axis, light units) vs. MOI (x-axis) in HeLa and HT29 cells infected with adenovirus under various conditions. For these studies, cells are grown in 96-well plates. The HT29 cells are seeded at near confluency, about 300,000 cells per well, and infected with adenovirus 3-4 days later. The cells are infected with luciferase-expressing, replication-deficient adenovirus at MOIs of 1, 3 or 10 by applying the virus to wells of cells in low serum medium for 4 hours at 37° C. In addition, the cells are incubated with gene transfer activating compound 675865 at a concentration of 30 nM, 300 nM, 10 uM, 30 uM or 100 uM along with the virus. A control set of cells is incubated with virus at MOIs of 1, 3 or 10, but no gene transfer activating compound is included. Forty-eight hours later, the cells are assayed for luciferase activity by standard techniques. […] FIGS. 3A and 3B present data from these experiments in which luciferase expression (y-axis, light units) is plotted vs. compound 675865 concentration (x-axis).
as §1, with “6A” for “2A”, “6B” for “2B”, “143491” for “675865”, “7A” for “3A”, “7B” for “3B”
(§2) Luciferase activity is measured using a commercially available assay kit (Bright-Glo™, Promega) designed for high throughput screening. Briefly, the Bright-Glo™ substrate is dissolved in Bright-Glo™ assay buffer at room temperature. 50 μl of the premixed Bright-Glo™ reagent is directly added to each well of the assay plate. Luminescence is measured in a microluminometer (Harta Instrument, Gaithersburg, Md.).

HeLa and HT29 cells = experiment: Adeno-associated virus luciferase gene transfer into HeLa and HT29 cells; conditions: MOI 2.78, 8.33 or 22, compound 30 nM to 100 uM, 48 hours
Procedure: FIGS. 8A and 8B show a comparison of luciferase expression (y-axis, light units) vs. MOI (x-axis) in HeLa and HT29 cells infected with adeno-associated virus under various conditions. For these studies, cells are grown as described in Example 8. The HT29 cells are seeded at near confluency, about 300,000 cells per well, and infected with adenovirus 3-4 days later. The cells are infected with luciferase-expressing, adeno-associated virus at MOIs of 2.78, 8.33 or 22 by applying the virus to wells of cells in low serum medium for 4 hours at 37° C. In addition, the cells are incubated with gene transfer activating compound 143491 at a concentration of 30 nM, 300 nM, 10 uM, 30 uM or 100 uM along with the virus. A control set of cells is incubated with virus at MOIs of 2.78, 8.33 or 22, but no gene transfer activating compound is included. Forty-eight hours later, the cells are assayed for luciferase activity by standard techniques. Luciferase activity is enhanced in cells treated with compound 143491 compared with controls. […]
(§3) Luciferase activity is measured using a commercially available assay kit (Bright-Glo™, Promega) designed for high throughput screening. […] Luminescence is measured in a microluminometer (Harta Instrument, Gaithersburg, Md.).

HT29 cells [2] = experiment: Lentivirus luciferase gene transfer into HT29 cells; conditions: MOI 0.002, 0.02 or 0.2, compound 30 nM to 100 uM, 48 hours
Procedure: FIG. 5A show a comparison of luciferase expression (y-axis, light units) vs. MOI (x-axis) in HT29 cells infected with lentivirus under various conditions. For these studies, cells are grown in 96-well plates as described in Example 8. The HT29 cells are seeded at near confluency, about 300,000 cells per well, and infected with a lentivirus vector expressing luciferase 3-4 days later. The cells are infected with lentivirus at MOIs of 0.002, 0.02 or 0.2 by applying the virus to wells of cells in low serum medium for 4 hours at 37° C. In addition, the cells are incubated with gene transfer activating compound 675865 at a concentration of 30 nM, 300 nM, 10 uM, 30 uM or 100 uM along with the virus. A control set of cells is incubated with virus at MOIs of 0.002, 0.02 or 0.2 but no gene transfer activating compound is included. Forty-eight hours later, the cells are assayed for luciferase activity by standard techniques.
FIG. 5B present data from these experiments in which luciferase expression (y-axis, light units) is plotted vs. compound 675865 concentration (x-axis).
as §3, with “screening. Briefly, the Bright-Glo™ substrate is dissolved in Bright-Glo™ assay buffer at room temperature.” for “screening.”

Calu3 cells = experiment: Adenovirus luciferase gene transfer into Calu3 cells grown on filters or plastic; conditions: 40 μm compound; 10 MOI (FIG. 4A)
Procedure: Lung epithelial cells which form tight junctions in vitro, Calu3, are grown on filters (Corning Costar Transwell®—polyester—pore size 0.4 μm) or plastic well allowing apical and basolateral specialization to occur.
Calu3 cells grown as described in Example 9 are incubated with adenovirus at 10 MOI and various compounds at a concentration of 40 micromolar. FIG. 4B indicates luciferase activity measured under these conditions.
Calu3 cells grown as described in Example 9 are incubated with luciferase-expressing adenovirus and various gene transfer activating compounds.
as §2

HT29 cells [3] = experiment: Adenovirus EGFP gene transfer, fluorescence microscopy; conditions: 100 micromolar compound, adenovirus EGFP MOI 0.1-10, 4 hours
Procedure: HT29 or HeLa cells are grown in 96-well plates. The HT29 cells are seeded at near confluency, about 300,000 cells per well, and infected with adenovirus 3-4 days later. Confluent HeLa cells are used as a positive control. […] A replication deficient adenovirus encoding the EGFP gene is applied at an MOI of 0.1-10 to wells of cells in low serum medium for 4 hours at 37° C. Gene transfer activating compounds are incubated along with the virus at concentrations of 100 micromolar. Cells are visualized with a fluorescent microscope where green fluorescence indicates EGFP expression. A set of cells is incubated with virus but no gene transfer activating compound.

SMILES	activation of adenovirus gene transfer (luciferase) (HT29 cells [1])	other results
O=C(CC(=O)c1cc(Cl)ccc1O)c1cccnc1 [NSC 73609]	activation of adenovirus gene transfer	
O=C(O)c1ccccc1N=Cc1ccc(N(CCCl)CCCl)cc1 [NSC 101492]	activation of adenovirus gene transfer	
CCCCCCCCCCCCCC[As](=O)(O)O [NSC 106191]	activation of adenovirus gene transfer	
CN(C)C(=O)CCCc1ccc(N(CCCl)CCCl)cc1 [NSC 108613]	activation of adenovirus gene transfer	
CN(C)CCCNc1c2ccccc2nc2ccc(F)cc12.Cl [NSC 109325]	activation of adenovirus gene transfer	
CC1=C(C)C(C#N)(C(=O)CBr)C(=N)O1 (stereo not shown) [NSC 128720]	activation of adenovirus gene transfer	
COc1cccc2c1C(=O)c1c(O)c3c(c(O)c1C2=O)CC(O)(/C(C)=N/O)CC3OC1CC(N)C(O)C(C)O1 (stereo not shown) [NSC 143491]	activation of adenovirus gene transfer	luciferase activity compared with controls, adeno-associated virus vector (HeLa and HT29 cells): enhanced; activation of adenovirus gene transfer (luciferase activity) (HT29 cells [1]): activation of adenovirus gene transfer
COc1ccc(CC2C(=O)NC(C)C(=O)N(C)C3C(=O)N(C)C(Cc4ccc(O)c(c4)Oc4ccc(cc4)C3O)C(=O)NC(C)C(=O)NC(C)C(=O)N2C)cc1 (stereo not shown) [NSC 259968]	activation of adenovirus gene transfer	
CN(C)CCCN=c1c2ccccc2n(C)c2[nH]c(=O)n(C)c(=O)c12 [NSC 373989]	activation of adenovirus gene transfer	
Nc1ncnc2c(C3OC(CO)C(O)C3O)nsc12 (stereo not shown) [NSC 675865]	activation of adenovirus gene transfer	luciferase activity, lentivirus vector (HT29 cells [2]): enhancement of luciferase activity; activation of adenovirus gene transfer (luciferase activity) (HT29 cells [1]): activation of adenovirus gene transfer; luciferase activity in Calu3 cells infected with luciferase expressing adenovirus (Calu3 cells): increased luciferase activity; activation of adenovirus gene transfer (EGFP green fluorescence) (HT29 cells [3]): activation of adenovirus gene transfer
